Consider seven compounds from patent US7442240B2, “Alkoxylpropylisothiazolinone and preparation method and use thereof” (Ocean University of China, priority 2004, dated 2008).

One experiment concerns heterotrophic bacteria. Kind of experiment: sterilization test in industrial cooling (circulating) water system. Conditions: for control and sterilization of microorganism in industry cooling water (in words): industrial cooling water; for the amount of the heterotrophic bacteria, virtual result / the rate of sterilization: 50 mg/L medicament. From the text: The compound of the present invention may be used to control and sterilize alga, fungi and bacteria in the industrial cooling water system. First, chlorine was stopped adding into the circulating water system for 3 days before administration. The total amount of the heterotrophic bacteria in the circulating water was raised, and then the 4,5-dichloro-2-methoxyethoxypropyl-4-isothiazolin-3-one was thrown in, while the discharge of the water was stopped. The amount of the heterotrophic bacteria in water and the sterilization rate was measured at 4 hours, 12 hours, 24 hours, 36 hours after the medicament was added.

For a further experiment, the system named is saccharomyces cerevisiae. Kind of experiment: lowest bacteriostasis concentration, tube double dilution method. The experiment is classed as cell-based. The following applies: 24 hours, 37° C. The protocol: (§1) The lowest bacteriostasis concentration of the six kinds of the alkoxylpropylisothiazolinone of the present invention is measured through the tube double dilution method. In a Φ18×180 mm tube, 5 ml aseptic culture medium was added, then 50 μl bacteria suspended liquid of coliform was injected to prepare culture solution of beef extract peptone having bacteria concentration of 10^7 cfu/ml, then 50 μl tetrahydrofuran solution containing 4,5-dichloro-2-isopropoxypropyl-4-isothiazolin-3-one with the concentration of 2 μg/ml, 4 μg/ml, 8 μg/ml, 16 μg/ml, 32 μg/ml were added respectively. After cultured for 24 hours under a constant temperature of 37° C., the lowest bacteriostasis concentration of 4,5-dichloro-2-isopropoxypropyl-4-isothiazolin-3-one against coliform bacteria was measured. The result is 8 μg/ml (the cfu is a colong forming unit, 1 cfu refer to one single colong formed on the agar plate after being cultured).
(§2) When the coliform bacteria of the present invention is replaced with saccharomyces cerevisiae or staphylococcus aureus, and the 4,5-dichloro-2-isopropoxypropyl-4-isothiazolin-3-one is replaced with 4,5-dichloro-2-methoxy-propyl-4-isothiazolin-3-one, 4,5-dichloro-2-ethoxypropyl-4-isothiazolin-3-one, 4,5-dichloro-2-butoxypropyl-4-isothiazolin-3-one, 4,5-dichloro-2-methoxyethoxypropyl-4-isothiazolin-3-one, or 4,5-dichloro-2-chlorophenoxyethoxypropyl-4-isothiazolin-3-one, a considerable experimental results are also received, which are shown in the following table.

In another experiment the test system is staphylococcus aureus. Described as above. It counts as cell-based. The following applies: 24 hours, 37° C. The method, then: as §1, §2
A further experiment concerns coliform bacteria. The experiment is described as above. The experiment is classed as cell-based. Conditions: 10^7 cfu/ml, 24 hours, 37° C. The protocol: as §1
In a further experiment the test system is leaf spot of beet. Put plainly: drug action and field test against leaf spot of beet. It counts as in vivo. From the text:
Otherwise, it has also a good prevent function to the apple ring rot, tomato gray mold and cotton soreshin. For example, when the 4,5-dichloro-2-isopropoxypropyl-4-isothiazolin-3-one is used as bactericide, it is merely required 39 g pure medicament per mu ( 1/15 of a hectare) with the concentration of 250 ppm to control the leaf spot of bee, and the efficiency of the prevention and cure is up to 75.0%.

Consider `CCCCOCCCn1sc(Cl)c(Cl)c1=O`, for which, in the experiment on heterotrophic bacteria, the “control and sterilization of microorganism in industry cooling water (in words)” value (“control and sterilization” below) is “controlled and sterilized effectively”. Moreover, the figures for the lowest bacteriostasis concentration in the experiment with saccharomyces cerevisiae, in the experiment on staphylococcus aureus and in the experiment with coliform bacteria were 4 µg/mL, 8 µg/mL and 4 µg/mL, respectively.

`COC(COC(C)Cn1sc(Cl)c(Cl)c1=O)OC` (centres unmarked) [4,5-dichloro-2-dimethoxyethoxypropyl-4-isothiazolin-3-one]: the “effect of the prevention and cure (in words)” value (from here on “effect”) in the experiment with leaf spot of beet is “considerable effect of the prevention and cure”.

`COCCOCCCn1sc(Cl)c(Cl)c1=O` [4,5-dichloro-2-methoxyethoxypropyl-4-isothiazolin-3-one]: the “the amount of the heterotrophic bacteria, virtual result” value with heterotrophic bacteria (4 h after addition) was 2.0 × 10^5 number/mL; in the experiment on heterotrophic bacteria (12 h after addition) it was 4.0 × 10^4 number/mL; in the experiment on heterotrophic bacteria (24 h after addition), 3.0 × 10^4 number/mL; in the experiment on heterotrophic bacteria (36 h after addition) it was 3.3 × 10^4 number/mL. The “the rate of sterilization” value with heterotrophic bacteria (4 h after addition) is 99.33%; with heterotrophic bacteria (12 h after addition), 99.87%; with heterotrophic bacteria (24 h after addition) it was 99.90%; in the experiment on heterotrophic bacteria (36 h after addition) it was 99.89%. Further, the lowest bacteriostasis concentration in the experiment on saccharomyces cerevisiae, in the experiment on staphylococcus aureus and in the experiment on coliform bacteria was 16 µg/mL throughout. Further, the “effect” value in the experiment on leaf spot of beet was “considerable effect of the prevention and cure”.

On to `COCCCn1sc(Cl)c(Cl)c1=O`, for which the “control and sterilization” value in the experiment on heterotrophic bacteria is “controlled and sterilized effectively”. For the same compound, the figures for the lowest bacteriostasis concentration in the experiment on saccharomyces cerevisiae, in the experiment on staphylococcus aureus and in the experiment with coliform bacteria were 16 µg/mL, 32 µg/mL and 4 µg/mL, respectively.

As to `O=c1c(Cl)c(Cl)sn1CCCOCCOc1ccc(Cl)cc1` [4,5-dichloro-2-chlorophenoxyethoxypropyl-4-isothiazolin-3-one], the lowest bacteriostasis concentration in the experiment with saccharomyces cerevisiae worked out at 8 µg/mL; in the experiment on staphylococcus aureus, 16 µg/mL; in the experiment with coliform bacteria it was 8 µg/mL.

Consider `CCOCCCn1sc(Cl)c(Cl)c1=O` [4,5-dichloro-2-ethoxypropyl-4-isothiazolin-3-one], for which, in the experiment with heterotrophic bacteria, the “control and sterilization” value is “controlled and sterilized effectively”. Moreover, the lowest bacteriostasis concentration in the experiment on saccharomyces cerevisiae was found to be 8 µg/mL; in the experiment with staphylococcus aureus, 16 µg/mL; in the experiment on coliform bacteria, 4 µg/mL. Moreover, in the experiment on leaf spot of beet, the “effect” value is “considerable effect of the prevention and cure”.

As to `CC(C)OCCCn1sc(Cl)c(Cl)c1=O` [4,5-dichloro-2-isopropoxypropyl-4-isothiazolin-3-one], the “control and sterilization” value in the experiment on heterotrophic bacteria was “controlled and sterilized effectively”. Besides, the results for the lowest bacteriostasis concentration in the experiment with saccharomyces cerevisiae, in the experiment on staphylococcus aureus and in the experiment with coliform bacteria were 8 µg/mL, 16 µg/mL and 8 µg/mL, respectively. In addition, the “effect” value in the experiment on leaf spot of beet is “considerable effect of the prevention and cure”. Moreover, the “efficiency of the prevention and cure” value in the experiment on leaf spot of beet (39 g pure medicament per mu, 250 ppm) was “up to 75.0%”.
